Results as given in patent publication US20250154197A1, “LIPOLYTIC PEPTIDES” (FUNDACIÓ HOSPITAL UNIVERSITARI VALL D'HEBRON - INSTITUT DE …, priority 2021, published 2025).
Where no end group is shown, it is not given here. [ ]: non-standard residue; d: D form.

What was measured:
[1] = system: human subcutaneoous mature adipocytes; experiment: Lipolytic activity: glycerol release in human adipocytes (Lipolysis Assay kit); format: cell-based; details: human subcutaneous mature adipocytes
3T3-L1 mouse adipocytes = experiment: Lipolytic activity: glycerol release in differentiated 3T3-L1 mouse adipocytes (12 h); format: cell-based; details: 3T3-L1 mouse adipocytes, 12 h
Method: JCRB9014-A) from Tebu-Bio (Tebu-bio, Barcelona, Spain). Briefly, mouse adipocytes (3T3-L1 cells) were cultured in 48 well plates as described previously (Saez-Lopez et al., 2020). Adipocytes were differentiated using cell culture reagents purchased from Tebu-Bio and following the manufacturer's instructions. At day of differentiation cells were treated in duplicates with vehicle (DMSO), Caffeine (100 μg/ml), and each of the peptides at the specified doses in Table 6a below. At the end of the experiment (12 h), supernatants were collected and glycerol content was measured using a Glycerol Assay Kit (Sigma) following manufacturer's instructions.

| Substance | Lipolysis Activity measured as Glycerol (μM) release in media ([1]; 25 μg/ml) | Lipolysis Activity measured as Glycerol (μM) release in media ([1]; 50 μg/ml) | Lipolysis Activity measured as Glycerol (μM) release in media ([1]; 75 μg/ml) | Lipolysis Activity measured as Glycerol (μM) release in media ([1]; 100 μg/ml) | Lipolysis Activity measured as Glycerol (μM) release in media (3T3-L1 mouse adipocytes; 1 μg/ml) | Lipolysis Activity measured as Glycerol (μM) release in media (3T3-L1 mouse adipocytes; 10 μg/ml) | Lipolysis Activity measured as Glycerol (μM) release in media (3T3-L1 mouse adipocytes; 100 μg/ml) |
| --- | --- | --- | --- | --- | --- | --- | --- |
| WDPEGLY (H-[dW][dD][dP][dE]G[dL][dY]-OH; SMILES CC(C)C[C@@H](NC(=O)CNC(=O)[C@@H](CCC(=O)O)NC(=O)[C@H]1CCCN1C(=O)[C@@H](CC(=O)O)NC(=O)[C@H](N)Cc1c[nH]c2ccccc12)C(=O)N[C@H](Cc1ccc(O)cc1)C(=O)O) [GP3D-DM1, N-term NH2, C-term COOH] | 15.94 µM | 32.98 µM | 37.78 µM | 40.28 µM | 356 µM | 477 µM | 324 µM |
| TWDPEG (H-[dT][dW][dD][dP][dE]G-OH; SMILES C[C@H](O)[C@@H](N)C(=O)N[C@H](Cc1c[nH]c2ccccc12)C(=O)N[C@H](CC(=O)O)C(=O)N1CCC[C@@H]1C(=O)N[C@H](CCC(=O)O)C(=O)NCC(=O)O) [GP3D-6 VII VIII IX X, N-term NH2, C-term COOH] | – | – | – | – | 404 µM | 327 µM | – |
| NDPEGLY (H-[dN][dD][dP][dE]G[dL][dY]-OH; SMILES CC(C)C[C@@H](NC(=O)CNC(=O)[C@@H](CCC(=O)O)NC(=O)[C@H]1CCCN1C(=O)[C@@H](CC(=O)O)NC(=O)[C@H](N)CC(N)=O)C(=O)N[C@H](Cc1ccc(O)cc1)C(=O)O) [GP3D-DM5, N-term NH2, C-term COOH] | 21.84 µM | 39.18 µM | 47.07 µM | 55.12 µM | – | – | 326 µM |
| TWDPEGVI (H-[dT][dW][dD][dP][dE]G[dV][dI]-OH; not fully specified) [GP3D-8 IX X, N-term NH2, C-term COOH] | – | – | – | – | 396 µM | 383 µM | 528 µM |
| DPEGVI (H-[dD][dP][dE]G[dV][dI]-OH; SMILES CC[C@@H](C)[C@@H](NC(=O)[C@H](NC(=O)CNC(=O)[C@@H](CCC(=O)O)NC(=O)[C@H]1CCCN1C(=O)[C@H](N)CC(=O)O)C(C)C)C(=O)O) [GP3D-6 I II IX X, N-term NH2, C-term COOH] | 17.01 µM | 40.79 µM | 43.36 µM | 53.13 µM | 326 µM | 300 µM | 368 µM |
| TWDPEGVIFY [GP3D-NH2] ([dT][dW][dD][dP][dE]G[dV][dI][dF][dY]-NH2; N-terminus assumed; SMILES CC[C@@H](C)[C@@H](NC(=O)[C@H](NC(=O)CNC(=O)[C@@H](CCC(=O)O)NC(=O)[C@H]1CCCN1C(=O)[C@@H](CC(=O)O)NC(=O)[C@@H](Cc1c[nH]c2ccccc12)NC(=O)[C@H](N)[C@H](C)O)C(C)C)C(=O)N[C@H](Cc1ccccc1)C(=O)N[C@H](Cc1ccc(O)cc1)C(N)=O) [N-term NH2, C-term CONH2] | – | – | – | – | 506 µM | 449 µM | 368 µM |
| Ac-TWDPEGVIFY-NH2 (Ac-[dT][dW][dD][dP][dE]G[dV][dI][dF][dY]-NH2; SMILES CC[C@@H](C)[C@@H](NC(=O)[C@H](NC(=O)CNC(=O)[C@@H](CCC(=O)O)NC(=O)[C@H]1CCCN1C(=O)[C@@H](CC(=O)O)NC(=O)[C@@H](Cc1c[nH]c2ccccc12)NC(=O)[C@H](NC(C)=O)[C@H](C)O)C(C)C)C(=O)N[C@H](Cc1ccccc1)C(=O)N[C@H](Cc1ccc(O)cc1)C(N)=O) [GP3D-AcNH2, N-term CH3CONH, C-term CONH2] | – | – | – | – | 606 µM | 464 µM | 472 µM |
| DPEGLFY (H-[dD][dP][dE]G[dL][dF][dY]-OH; SMILES CC(C)C[C@@H](NC(=O)CNC(=O)[C@@H](CCC(=O)O)NC(=O)[C@H]1CCCN1C(=O)[C@H](N)CC(=O)O)C(=O)N[C@H](Cc1ccccc1)C(=O)N[C@H](Cc1ccc(O)cc1)C(=O)O) [GP3D-DM2, N-term NH2, C-term COOH] | 15.77 µM | 34.83 µM | 48.40 µM | 52.24 µM | 303 µM | – | – |
| TWDPEGIFY (H-[dT][dW][dD][dP][dE]G[dI][dF][dY]-OH; not fully specified) [GP3D-9 VII, N-term NH2, C-term COOH] | – | – | – | – | – | – | 354 µM |
| TWDPEGVIF (H-[dT][dW][dD][dP][dE]G[dV][dI][dF]-OH; not fully specified) [GP3D-9 X, N-term NH2, C-term COOH] | – | – | – | – | – | – | 493 µM |
| TDPEGVIY (H-[dT][dD][dP][dE]G[dV][dI][dY]-OH; not fully specified) [GP3D-8 II IX, N-term NH2, C-term COOH] | – | – | – | – | 557 µM | 508 µM | 370 µM |
| WDPEGVIY (H-[dW][dD][dP][dE]G[dV]I[dY]-OH; not fully specified (residue 7)) [GP3D-8 I IX, N-term NH2, C-term COOH] | – | – | – | – | 452 µM | 426 µM | 588 µM |
| DPEGVFY (H-[dD][dP][dE]G[dV][dF][dY]-OH; SMILES CC(C)[C@@H](NC(=O)CNC(=O)[C@@H](CCC(=O)O)NC(=O)[C@H]1CCCN1C(=O)[C@H](N)CC(=O)O)C(=O)N[C@H](Cc1ccccc1)C(=O)N[C@H](Cc1ccc(O)cc1)C(=O)O) [GP3D-7 I II VIII, N-term NH2, C-term COOH] | – | – | – | – | 485 µM | 325 µM | 340 µM |
| WDPEGVY (H-[dW][dD][dP][dE]G[dV][dY]-OH; SMILES CC(C)[C@@H](NC(=O)CNC(=O)[C@@H](CCC(=O)O)NC(=O)[C@H]1CCCN1C(=O)[C@@H](CC(=O)O)NC(=O)[C@H](N)Cc1c[nH]c2ccccc12)C(=O)N[C@H](Cc1ccc(O)cc1)C(=O)O) [GP3D-7 I VIII IX, N-term NH2, C-term COOH] | – | – | – | – | – | 314 µM | – |
| TDPEGVIFY (H-[dT][dD][dP][dE]G[dV][dI][dF][dY]-OH; not fully specified) [GP3D-9 II, N-term NH2, C-term COOH] | – | – | – | – | – | – | 315 µM |
| TWDPEVIFY (H-[dT][dW][dD][dP][dE][dV][dI][dF][dY]-OH; not fully specified) [GP3D-9 VI, N-term NH2, C-term COOH] | – | – | – | – | – | – | 315 µM |
| TWPEGVIFY (H-[dT][dW][dP][dE]G[dV][dI][dF][dY]-OH; not fully specified) [GP3D-9 III, N-term NH2, C-term COOH] | – | – | – | – | – | – | 346 µM |
| WDPEGVIFY (H-[dW][dD][dP][dE]G[dV]I[dF][dY]-OH; not fully specified (residue 7)) [GP3D-9 I, N-term NH2, C-term COOH] | – | – | – | – | – | – | 344 µM |
| WDNEGLY (H-[dW][dD][dN][dE]G[dL][dY]-OH; SMILES CC(C)C[C@@H](NC(=O)CNC(=O)[C@@H](CCC(=O)O)NC(=O)[C@@H](CC(N)=O)NC(=O)[C@@H](CC(=O)O)NC(=O)[C@H](N)Cc1c[nH]c2ccccc12)C(=O)N[C@H](Cc1ccc(O)cc1)C(=O)O) [GP3D-DM4, N-term NH2, C-term COOH] | – | – | – | – | 469 µM | 416 µM | 309 µM |
| WDPEG (H-[dW][dD][dP][dE]G-OH; SMILES N[C@H](Cc1c[nH]c2ccccc12)C(=O)N[C@H](CC(=O)O)C(=O)N1CCC[C@@H]1C(=O)N[C@H](CCC(=O)O)C(=O)NCC(=O)O) [GP3D-5 I VII VIII IX X, N-term NH2, C-term COOH] | – | – | – | – | 368 µM | 349 µM | 398 µM |
| TWDPGVIFY (H-[dT][dW][dD][dP]G[dV][dI][dF][dY]-OH; not fully specified) [GP3D-9 V, N-term NH2, C-term COOH] | – | – | – | – | – | – | 394 µM |
| WDPEGVIF (H-[dW][dD][dP][dE]G[dV]I[dF]-OH; not fully specified (residue 7)) [GP3D-8 I X, N-term NH2, C-term COOH] | – | – | – | – | 616 µM | 465 µM | 441 µM |
